Literature values in patent US20100022462A1, “APPETITE S[…] COLON CLEANSING COMPOSITION” (priority 2008, published 2010).

System: lipase
Settings: background statement on the marketed drug; no test conditions given

## CCCCCCCCCCC[C@@H](C[C@@H]1OC(=O)[C@H]1CCCCCC)OC(=O)[C@H](CC(C)C)NC=O [XENICAL, orlistat]
  decreasing dietary fat absorption: 30%
